According to US20260248824A1, “LIPID NANOPARTICLES” (SHIZUOKA PREFECTURAL UNIVERSITY CORPORATION, priority 2023, published 2026):

System: Insulinoma INS-1 cells derived from rat pancreatic β cells
Assay: Antiapoptotic effects on pancreatic β cells (cleaved caspase-3 western blotting, thapsigargin-induced)
Format: cell-based
Details: thapsigargin 300 nM, nobiletin concentration 20 μM, 14 hours, FIG. 20
Method: Insulinoma INS-1 cells derived from rat pancreatic β cells were seeded into a 6-well dish at 8×10^5 cells/well. […] After 14 hours of treatment, the cells were collected and subjected to SDS-PAGE, and protein expression in pancreatic β cells was analyzed by western blotting using a cleaved caspase-3 antibody as an indicator of apoptosis. Correction was made using the expression level of 3-actin as an internal standard.

COc1ccc(-c2cc(=O)c3c(OC)c(OC)c(OC)c(OC)c3o2)cc1OC [nobiletin alone, nobiletin]
Suppression of thapsigargin-induced increase in cleaved caspase 3 (antiapoptotic activity): The effects were comparative with nobiletin alone
